Targets include Carbonic anhydrase 12 (Homo sapiens, UniProt O43570); Carbonic anhydrase 1 (Homo sapiens, UniProt P00915); Carbonic anhydrase 2 (Homo sapiens, UniProt P00918); Carbonic anhydrase 9 (Homo sapiens, UniProt Q16790).
A further test has as its system HT-29. Briefly: cells. The conditions noted are these: Homo sapiens, HT-29, 24 h. Type of test: functional, cell-based.
The next test concerns HEK-293T. The test can be described thus: cells. The test is classed as ADME, cell-based. The conditions noted are these: Homo sapiens, 24 h.

Carbonic anhydrase 12, sequence (O43570 whole entry): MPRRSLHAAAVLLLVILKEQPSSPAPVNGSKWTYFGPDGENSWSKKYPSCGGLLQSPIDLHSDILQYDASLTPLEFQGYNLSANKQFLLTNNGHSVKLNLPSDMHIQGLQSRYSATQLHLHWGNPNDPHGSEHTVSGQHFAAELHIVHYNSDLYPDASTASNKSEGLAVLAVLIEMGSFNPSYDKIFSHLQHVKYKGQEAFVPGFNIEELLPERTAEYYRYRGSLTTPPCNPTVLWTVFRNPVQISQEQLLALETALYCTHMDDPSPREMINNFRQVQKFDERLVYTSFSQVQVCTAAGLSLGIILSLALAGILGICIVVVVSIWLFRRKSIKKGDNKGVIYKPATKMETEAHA
Carbonic anhydrase 1, sequence (P00915 whole entry): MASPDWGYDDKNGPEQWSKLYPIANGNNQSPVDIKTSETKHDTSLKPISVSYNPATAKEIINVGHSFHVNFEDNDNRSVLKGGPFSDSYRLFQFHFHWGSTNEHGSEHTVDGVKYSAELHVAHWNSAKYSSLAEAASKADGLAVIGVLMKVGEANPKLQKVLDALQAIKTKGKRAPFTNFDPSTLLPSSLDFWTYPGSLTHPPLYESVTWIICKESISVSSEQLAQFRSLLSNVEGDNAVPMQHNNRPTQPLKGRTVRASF
Description for Carbonic anhydrase 12: Inhibition of human carbonic anhydrase 12 incubated for 10 mins prior to testing measured for 5 to 10 secs by phenol red-based stopped-flow CO2 hydration assay
Description for Carbonic anhydrase 2: Inhibition of human carbonic anhydrase 2 incubated for 10 mins prior to testing measured for 5 to 10 secs by phenol red-based stopped-flow CO2 hydration assay
Description for Carbonic anhydrase 9: Inhibition of human carbonic anhydrase 9 incubated for 10 mins prior to testing measured for 5 to 10 secs by phenol red-based stopped-flow CO2 hydration assay
Description for HEK-293T: Cytotoxicity in HEK293T cells assessed as reduction in cell viability incubated for 24 hrs under hypoxic condition by MTT assay
Description for HT-29: Cytotoxicity in human HT-29 cells assessed as reduction in cell viability incubated for 24 hrs under hypoxic condition by MTT assay

`O=Cc1c(OCc2cn(CCCOc3ccc4ccc(=O)oc4c3)nn2)ccc2ccccc12`: the inhibition constant Ki is > 10 µM at Carbonic anhydrase 12, > 10 µM on Carbonic anhydrase 1, > 10 µM on Carbonic anhydrase 2 and 0.189 µM at Carbonic anhydrase 9. In the test on HT-29, this molecule gave a half-inhibitory concentration (IC50) of 149 µM.
Turning to `C#CCOc1cccc(/C=N/Cc2ccc(S(N)(=O)=O)cc2)c1`, the Ki is > 10 µM at Carbonic anhydrase 1 and 2.03 µM at Carbonic anhydrase 9. Further, in the test with HT-29, inhibition was half-maximal at 104 µM (IC50).
On to `NS(=O)(=O)c1ccc(C/N=C/c2ccc(OCc3cn(CCCOc4ccc5ccc(=O)oc5c4)nn3)cc2)cc1`, for which the Ki on Carbonic anhydrase 1 was > 10 µM; at Carbonic anhydrase 9 it was 0.169 µM. The IC50 in the test with HT-29 stood at 125 µM.
Regarding `NS(=O)(=O)c1ccc(C/N=C/c2cc(Br)ccc2OCc2cn(CCCOc3ccc4ccc(=O)oc4c3)nn2)cc1`, the values for the inhibition constant Ki on Carbonic anhydrase 1 and on Carbonic anhydrase 9 were > 10 µM and 0.16 µM, respectively. In addition, the IC50 in the test with HT-29 came out at 17.7 µM; with HEK-293T it was 8.25 µM.
In the case of `C#CCOc1ccc(/C=N/Cc2ccc(S(N)(=O)=O)cc2)cc1OC`, the results for the Ki on Carbonic anhydrase 1 and on Carbonic anhydrase 9 were > 10 µM and 0.0812 µM, respectively. The IC50 with HT-29 came to 136 µM; in the test on HEK-293T, 537 µM.
For the molecule `COc1cc(/C=N/Cc2ccc(S(N)(=O)=O)cc2)ccc1OCc1cn(CCCOc2ccc3ccc(=O)oc3c2)nn1`, the Ki at Carbonic anhydrase 1 is > 10 µM; at Carbonic anhydrase 9 it was 0.76 µM. The molecule also came in with an IC50 in the test with HT-29 of 31.6 µM.
For the molecule `CCN(CC)c1ccc(/C=N/Cc2ccc(S(N)(=O)=O)cc2)c(OCc2cn(CCCOc3ccc4ccc(=O)oc4c3)nn2)c1`, the Ki at Carbonic anhydrase 1 was > 10 µM; at Carbonic anhydrase 9, 2.18 µM. For the same molecule, the half-inhibitory concentration (IC50) with HT-29 turned out to be 23.3 µM; in the test with HEK-293T, 29.5 µM.
The matching figures for `O=Cc1ccccc1OCc1cn(CCCOc2ccc3ccc(=O)oc3c2)nn1`: > 10 µM, 0.128 µM, 18.9 µM and 13.7 µM.
Take `O=Cc1cccc(OCc2cn(CCCOc3ccc4ccc(=O)oc4c3)nn2)c1`: the Ki was > 10 µM on Carbonic anhydrase 1, > 10 µM at Carbonic anhydrase 2 and 0.192 µM at Carbonic anhydrase 9. Also, in the test on HT-29, the half-inhibitory concentration (IC50) worked out at 129 µM.
On to `COc1cc(C=O)ccc1OCc1cn(CCCOc2ccc3ccc(=O)oc3c2)nn1`, for which the inhibitory constant (Ki) is > 10 µM on Carbonic anhydrase 12, > 10 µM at Carbonic anhydrase 1, > 10 µM on Carbonic anhydrase 2 and 0.133 µM at Carbonic anhydrase 9. In addition, the concentration for half-maximal inhibition (IC50) in the test on HT-29 was 65.4 µM.
`COc1cccc(C=O)c1OCc1cn(CCCOc2ccc3ccc(=O)oc3c2)nn1`: the inhibitory constant (Ki) on Carbonic anhydrase 12 was > 10 µM; at Carbonic anhydrase 1, > 10 µM; at Carbonic anhydrase 2, > 10 µM; at Carbonic anhydrase 9 it was 1.17 µM. In addition, the half-inhibitory concentration (IC50) was 13.3 µM in the test on HT-29 and 30.4 µM in the test with HEK-293T.
`COc1cccc(/C=N/Cc2ccc(S(N)(=O)=O)cc2)c1OCc1cn(CCCOc2ccc3ccc(=O)oc3c2)nn1`: the Ki on Carbonic anhydrase 1 was > 10 µM; on Carbonic anhydrase 9, 1.48 µM. In the test with HT-29, this molecule yielded an IC50 of 52.5 µM.
On to `O=Cc1cc([N+](=O)[O-])ccc1OCc1cn(CCCOc2ccc3ccc(=O)oc3c2)nn1`, for which the inhibition constant Ki on Carbonic anhydrase 12 was > 10 µM; at Carbonic anhydrase 1 it was > 10 µM; on Carbonic anhydrase 2, > 10 µM; on Carbonic anhydrase 9 it was 0.137 µM. The molecule further came in with an IC50 in the test on HT-29 of 53.6 µM.
For the molecule `C#CCOc1cc(N(CC)CC)ccc1/C=N/Cc1ccc(S(N)(=O)=O)cc1`, the Ki is > 10 µM at Carbonic anhydrase 1 and 0.198 µM on Carbonic anhydrase 9. Also, the IC50 in the test on HT-29 stood at 62.8 µM.
Take `O=Cc1cc(Br)ccc1OCc1cn(CCCOc2ccc3ccc(=O)oc3c2)nn1`: the Ki is > 10 µM at Carbonic anhydrase 12, > 10 µM on Carbonic anhydrase 1, > 10 µM at Carbonic anhydrase 2 and 0.196 µM on Carbonic anhydrase 9. The IC50 in the test with HT-29 was 7.47 µM; with HEK-293T it was 6.08 µM.
With `C#CCOc1ccc([N+](=O)[O-])cc1/C=N/Cc1ccc(S(N)(=O)=O)cc1`, the Ki on Carbonic anhydrase 1 was > 10 µM; on Carbonic anhydrase 9, 0.212 µM. This molecule also yielded a concentration for half-maximal inhibition (IC50) in the test on HT-29 of 34.8 µM.
For `NS(=O)(=O)c1ccc(C/N=C/c2cc([N+](=O)[O-])ccc2OCc2cn(CCCOc3ccc4ccc(=O)oc4c3)nn2)cc1`, in that order: > 10 µM, 0.857 µM and 117 µM.
Consider `C#CCOc1ccc(/C=N/Cc2ccc(S(N)(=O)=O)cc2)cc1`, for which the Ki at Carbonic anhydrase 1 was > 10 µM; at Carbonic anhydrase 9 it was 0.231 µM. Also, the 50% inhibitory concentration (IC50) with HT-29 was determined as 14.1 µM; with HEK-293T, 398 µM.
In the case of `C#CCOc1ccccc1/C=N/Cc1ccc(S(N)(=O)=O)cc1`, the Ki at Carbonic anhydrase 1 was > 10 µM; on Carbonic anhydrase 9 it was 1.07 µM. The same molecule displayed an IC50 in the test with HT-29 of 31 µM.
For `CCN(CC)c1ccc(C=O)c(OCc2cn(CCCOc3ccc4ccc(=O)oc4c3)nn2)c1`, the inhibitory constant (Ki) is > 10 µM on Carbonic anhydrase 12, > 10 µM on Carbonic anhydrase 1, > 10 µM on Carbonic anhydrase 2 and 0.158 µM on Carbonic anhydrase 9. For the same molecule, the results for the half-maximal inhibitory concentration (IC50) in the test on HT-29 and with HEK-293T were 9.03 µM and 19.2 µM, respectively.
On to `NS(=O)(=O)c1ccc(C/N=C/c2cccc(OCc3cn(CCCOc4ccc5ccc(=O)oc5c4)nn3)c2)cc1`, for which the values for the Ki on Carbonic anhydrase 1 and at Carbonic anhydrase 9 were > 10 µM and 0.955 µM, respectively. The IC50 in the test on HT-29 was 107 µM.
For `C#CCOc1ccc2ccccc2c1/C=N/Cc1ccc(S(N)(=O)=O)cc1`, in that order: > 10 µM, 1.09 µM and 46.1 µM.
On to `NS(=O)(=O)c1ccc(C/N=C/c2ccccc2OCc2cn(CCCOc3ccc4ccc(=O)oc4c3)nn2)cc1`, for which the results for the inhibition constant (Ki) at Carbonic anhydrase 1 and at Carbonic anhydrase 9 were > 10 µM and 0.187 µM, respectively. The half-maximal inhibitory concentration (IC50) in the test with HT-29 was 14.3 µM; in the test with HEK-293T, 13.9 µM.
For `O=Cc1ccc(OCc2cn(CCCOc3ccc4ccc(=O)oc4c3)nn2)cc1`, the Ki at Carbonic anhydrase 12 is > 10 µM; at Carbonic anhydrase 1, > 10 µM; on Carbonic anhydrase 2 it was > 10 µM; at Carbonic anhydrase 9, 0.171 µM. In the test with HT-29, inhibition was half-maximal at 100 µM (IC50).
For the molecule `C#CCOc1ccc(Br)cc1/C=N/Cc1ccc(S(N)(=O)=O)cc1`, the results for the Ki at Carbonic anhydrase 1 and at Carbonic anhydrase 9 were > 10 µM and 0.19 µM, respectively. Besides, the concentration for half-maximal inhibition (IC50) with HT-29 is 45.7 µM.
On to `C#CCOc1c(/C=N/Cc2ccc(S(N)(=O)=O)cc2)cccc1OC`, for which the inhibition constant (Ki) on Carbonic anhydrase 1 was > 10 µM; at Carbonic anhydrase 9, 1.19 µM. Besides, the IC50 in the test with HT-29 was 81.3 µM; in the test on HEK-293T it was 135 µM.
For the molecule `COc1cccc2c1C(=O)c1c(O)c3c(c(O)c1C2=O)C[C@@](O)(C(=O)CO)C[C@@H]3O[C@H]1C[C@H](N)[C@H](O)[C@H](C)O1` [DOXORUBICIN], the figures for the IC50 with HT-29 and with HEK-293T were 5.38 µM and 1.05 µM, respectively.
Consider `NS(=O)(=O)c1ccc(C/N=C/c2c(OCc3cn(CCCOc4ccc5ccc(=O)oc5c4)nn3)ccc3ccccc23)cc1`, for which the Ki was > 10 µM at Carbonic anhydrase 1 and 0.0455 µM on Carbonic anhydrase 9. In addition, the results for the IC50 in the test with HT-29 and in the test on HEK-293T were 17 µM and 119 µM, respectively.

(Values after ChEMBL document CHEMBL4311974, “Synthesis of coumarin-sulfonamide derivatives and determination of their cytotoxicity, carbonic anhydrase inhibitory and molecular docking studies” (Eur J Med Chem, 2019).)
